Several values for one entry are separate records, joined by “and”; a condition that tells them apart may be missing. Equal values may be shown once.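 Cells were grown in 96-well plates and exposed to each compound for 48 hours at five concentrations; endpoints were interpolated linearly between bracketing concentrations, or set to the highest concentration if not reached. The concentration for 50% growth inhibition is given as GI50.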 Activity calls are given as the source filed them. Cut-off read from the data, not from the text of the source: active = GI50 up to about 1.1 µM and inactive = higher.
Assays:
Experiment in all cases: growth of human tumour cells (NCI), 48 h
[1] = system: A498
[2] = system: ACHN
[3] = system: LXFL 529
[4] = system: LOX IMVI
[5] = system: HCT-15
[6] = system: SNB-78
[7] = system: M14
[8] = system: TK-10
[9] = system: KM-20L2
[10] = system: DLD-1
[11] = system: HOP-18
[12] = system: MCF7
[13] = system: M19-MEL
[14] = system: NCI-H226
[15] = system: NCI/ADR-RES
[16] = system: XF498
[17] = system: CAKI-1
[18] = system: DMS-273
[19] = system: SR
[20] = system: DU-145

| SMILES | GI50 [1] | GI50 [2] | GI50 [3] | GI50 [4] | GI50 [5] [µM] | GI50 [6] | GI50 [7] | GI50 [8] | GI50 [9] | GI50 [10] | GI50 [11] | GI50 [12] | GI50 [13] | GI50 [14] | GI50 [15] | GI50 [16] | GI50 [17] | GI50 [18] | GI50 [19] | GI50 [20] |
| --- | --- | --- | --- | --- | --- | --- | --- | --- | --- | --- | --- | --- | --- | --- | --- | --- | --- | --- | --- | --- |
| CC(=O)c1ccc(Oc2ccc(/C(C)=N\N=C(N)N)cc2)cc1 | 1.77 µM (inactive) | 4.73 µM (inactive) | 4.18 µM (inactive) | 3.4 µM (inactive) | 2.17 | 2.8 µM (inactive) | 1.5 µM (inactive) | 3.28 µM (inactive) | 1.71 µM (inactive) | 3.56 µM (inactive) |  |  |  |  |  |  |  |  |  |  |
| CC(C(=O)O)c1cnn(-c2ccccc2)c1-n1cccc1 (configuration not stated) | > 100 µM (inactive) |  |  | > 100 µM (inactive) | > 100 | > 100 µM (inactive) |  |  | > 100 µM (inactive) | > 100 µM (inactive) | > 100 µM (inactive) | > 100 µM (inactive) | > 100 µM (inactive) | > 100 µM (inactive) | > 100 µM (inactive) | > 100 µM (inactive) | > 100 µM (inactive) | > 100 µM (inactive) |  |  |
| OCC(O)COc1ccc(Br)cc1 (configuration not stated) | > 100 µM (inactive) | > 100 µM (inactive) | > 100 µM (inactive) | > 100 µM (inactive) | > 100 |  | > 100 µM (inactive) | > 100 µM (inactive) | > 100 µM (inactive) | > 100 µM (inactive) | > 100 µM (inactive) |  |  | > 100 µM (inactive) |  | > 100 µM (inactive) | > 100 µM (inactive) | > 100 µM (inactive) | 0.0166 µM (active) |  |
| O=C1C(Cl)N(c2ccc(Cl)cc2)C1c1c[nH]c2ccccc12 (configuration not stated) |  |  | 14.1 µM (inactive) |  |  |  | 18.2 µM (inactive) | 19.8 µM (inactive) | 13.2 µM (inactive) |  |  |  | 24.3 µM (inactive) |  |  | 17.5 µM (inactive) |  |  | 9.18 µM (inactive) |  |
| C/C(=N/NC(=O)c1ccncc1)C(F)(F)F | > 100 µM (inactive) |  |  |  | > 100 |  | > 100 µM (inactive) | > 100 µM (inactive) |  |  |  | > 100 µM (inactive) |  | > 100 µM (inactive) | > 100 µM (inactive) |  | > 100 µM (inactive) |  | > 100 µM (inactive) | > 100 µM (inactive) |
| C[C@@H]1C[C@]2(C[C@@H](C)[C@H]3C(C[C@@]4(C)CCC[C@@H]5C6=C[C@H](CCC34C)OC6=CC(=O)OC5(C)C)O2)OC1=O (some centres not stated) | > 51.5 µM (inactive) |  |  | > 51.5 µM (inactive) | > 51.5 | > 51.5 µM (inactive) |  |  | > 51.5 µM (inactive) | > 51.5 µM (inactive) | > 51.5 µM (inactive) | > 51.5 µM (inactive) | > 51.5 µM (inactive) |  | > 51.5 µM (inactive) | > 51.5 µM (inactive) | > 51.5 µM (inactive) | > 51.5 µM (inactive) |  |  |
| O=C1C(CO)=C[C@H](O)[C@H]2O[C@@H]12 | 234 µM (inactive) |  |  | 136 µM (inactive) | 124 | 186 µM (inactive) |  |  | 337 µM (inactive) | 113 µM (inactive) | > 625 µM (inactive) | 126 µM (inactive) | 120 µM (inactive) | 194 µM (inactive) | 162 µM (inactive) | 177 µM (inactive) | 253 µM (inactive) | 185 µM (inactive) |  |  |
| CC(Oc1ccc(Oc2cnc3ccc(Cl)cc3n2)cc1)C(=O)O (configuration not stated) | > 80.4 µM (inactive) | 60.5 µM (inactive) |  | 51.8 µM (inactive) |  |  | > 100 µM (inactive) | > 100 µM (inactive) |  |  |  | 37.3 µM (inactive) and 84.3 µM (inactive) |  |  |  |  | > 100 µM (inactive) |  | > 44.5 µM (inactive) | > 88.9 µM (inactive) |
